Test results from ChEMBL document CHEMBL1201862, “PubChem BioAssay data set” (2004).
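Five compound concentrations were applied to cells in 96-well plates for 48 hours; endpoints were derived by simple linear interpolation of the resulting dose-response curve. Abbreviation: GI50, concentration required for 50% inhibition of growth.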 Active and inactive are the calls of the source. No stated cut-off is given here; in the data, active = GI50 up to about 1.1 µM and inactive = higher.

How the values were obtained:
Test in all cases: DTP human tumour cell line panel, 48 h
HL-60 = system: HL-60
SN12C = system: SN12C
EKVX = system: EKVX
UACC-62 = system: UACC-62
Hs-578T = system: Hs-578T
MOLT-4 = system: MOLT-4
SK-OV-3 = system: SK-OV-3
NCI-H460 = system: NCI-H460
786-0 = system: 786-0
T47D = system: T47D
U-251 = system: U-251
TK-10 = system: TK-10
SF-295 = system: SF-295
HT-29 = system: HT-29
MCF7 = system: MCF7
CAKI-1 = system: CAKI-1
NCI-H226 = system: NCI-H226
DU-145 = system: DU-145
LOX IMVI = system: LOX IMVI
MDA-N = system: MDA-N

Compound | GI50 (HL-60) | GI50 (SN12C) | GI50 (EKVX) | GI50 (UACC-62) | GI50 (Hs-578T) | GI50 (MOLT-4) | GI50 (SK-OV-3) | GI50 (NCI-H460) | GI50 (786-0) | GI50 (T47D) | GI50 (U-251) | GI50 (TK-10) | GI50 (SF-295) | GI50 (HT-29) | GI50 (MCF7) | GI50 (CAKI-1) | GI50 (NCI-H226) | GI50 (DU-145) | GI50 (LOX IMVI) | GI50 (MDA-N)
CCCc1cn2c(/C=N/NC(=N)N)c(-c3ccc([N+](=O)[O-])cc3)nc2s1 | 0.45 µM (active) | 1.58 µM (inactive) | 1.95 µM (inactive) | 1.82 µM (inactive) | 2.33 µM (inactive) | 0.231 µM (active) | 1.79 µM (inactive) | 1.93 µM (inactive) | 0.853 µM (active) | 1.67 µM (inactive) | 0.769 µM (active) | 1.81 µM (inactive) | 0.912 µM (active) | 0.275 µM (active) | 1.75 µM (inactive) | 1.69 µM (inactive) | 2 µM (inactive) | 1.77 µM (inactive) | 1.39 µM (inactive) | 
CCCCCCCCCCC(O)[C@H]1CCC(C2CC[C@H]([C@H](O)CCCCCCCCCCC(O)CC3=CC(C)OC3=O)O2)O1 (stereo not given in full) | 1.77 µM (inactive) | 2.25 µM (inactive) | 1.23 µM (inactive) | 1.45 µM (inactive) | 1.7 µM (inactive) | 2.47 µM (inactive) | 3.18 µM (inactive) | 1.04 µM (active) | 3.51 µM (inactive) | 2.23 µM (inactive) | 3.03 µM (inactive) | 1.59 µM (inactive) | 0.214 µM (active) | 1.55 µM (inactive) | 1.21 µM (inactive) | 2.18 µM (inactive) | 1.11 µM (active) | 4.57 µM (inactive) | 1.38 µM (inactive) | 
CCCCC(=O)Nc1ccc2c(C)cc(-c3ccc(-c4cc(-c5ccc(C)cc5)cc(-c5ccc(-c6cc(C)c7ccc(NC(=O)CCCC)nc7n6)cc5)n4)cc3)nc2n1 |  | > 100 µM (inactive) | > 100 µM (inactive) | > 100 µM (inactive) |  | > 100 µM (inactive) | > 100 µM (inactive) | > 100 µM (inactive) | > 100 µM (inactive) | > 100 µM (inactive) | > 100 µM (inactive) | > 100 µM (inactive) | > 100 µM (inactive) |  | > 100 µM (inactive) | > 100 µM (inactive) |  | > 100 µM (inactive) |  | > 100 µM (inactive)
Cc1cc(=O)c2cc(/N=C/c3ccc([N+](=O)[O-])o3)ccc2o1 | 57.9 µM (inactive) | > 100 µM (inactive) | > 100 µM (inactive) | 56.1 µM (inactive) | > 100 µM (inactive) | 37.4 µM (inactive) | > 100 µM (inactive) | > 100 µM (inactive) | 64.4 µM (inactive) | > 100 µM (inactive) | > 100 µM (inactive) | > 100 µM (inactive) | > 100 µM (inactive) | > 100 µM (inactive) | 24.3 µM (inactive) | > 100 µM (inactive) | > 100 µM (inactive) | > 100 µM (inactive) | 42.7 µM (inactive) | 
Cc1cc(C)c2c(c1)CC1(Cc3cc(C)c(C)cc3C1=O)C2=O (stereo not given) | 7.1 µM (inactive) | > 100 µM (inactive) | > 100 µM (inactive) | > 100 µM (inactive) | 56.6 µM (inactive) | > 100 µM (inactive) |  | > 100 µM (inactive) | 71.9 µM (inactive) | > 100 µM (inactive) | > 100 µM (inactive) | > 100 µM (inactive) | > 100 µM (inactive) |  | > 100 µM (inactive) | > 100 µM (inactive) | > 100 µM (inactive) | > 100 µM (inactive) | > 100 µM (inactive) | 
COC(=O)/C=C/CCC#Cc1ccccc1C#CCC/C=C/C(=O)OC | 2.7 µM (inactive) | 7.38 µM (inactive) | 36.1 µM (inactive) | 12.6 µM (inactive) |  | 3.01 µM (inactive) | 21.7 µM (inactive) | 12.4 µM (inactive) | 4.98 µM (inactive) | 4.07 µM (inactive) | 4.32 µM (inactive) | 30.7 µM (inactive) | 13.2 µM (inactive) | 3.49 µM (inactive) | 6.41 µM (inactive) | 2.88 µM (inactive) | 13.1 µM (inactive) | 32 µM (inactive) | 4.99 µM (inactive) | 4.47 µM (inactive)
CNC(=O)c1cc2nc3ccccc3c(=O)n2c2ccccc12 | > 10 µM (inactive) | > 10 µM (inactive) | > 10 µM (inactive) | > 10 µM (inactive) | > 10 µM (inactive) | > 10 µM (inactive) | > 10 µM (inactive) |  | > 10 µM (inactive) | > 10 µM (inactive) | > 10 µM (inactive) | > 10 µM (inactive) | > 10 µM (inactive) | > 10 µM (inactive) | > 10 µM (inactive) | > 10 µM (inactive) | > 10 µM (inactive) | > 10 µM (inactive) | > 10 µM (inactive) | 
Cc1ccc(S(=O)(=O)NC(=O)NC(Cc2ccc(O)c(O)c2)C(=O)O)cc1 (stereo not given) | > 100 µM (inactive) | > 100 µM (inactive) | > 100 µM (inactive) | > 100 µM (inactive) |  | > 100 µM (inactive) |  | > 100 µM (inactive) | 20.4 µM (inactive) | > 100 µM (inactive) | > 100 µM (inactive) | > 100 µM (inactive) | > 100 µM (inactive) | > 100 µM (inactive) | > 100 µM (inactive) | > 100 µM (inactive) | > 100 µM (inactive) | > 100 µM (inactive) | > 100 µM (inactive) | > 100 µM (inactive)
O=C(NCCCN(CCCCN(CCCNC(=O)c1cc(S(=O)(=O)O)cc(O)c1O)C(=O)c1cc(S(=O)(=O)O)cc(O)c1O)C(=O)c1cc(S(=O)(=O)O)cc(O)c1O)c1cc(S(=O)(=O)O)cc(O)c1O | 66.1 µM (inactive) | > 100 µM (inactive) |  | > 100 µM (inactive) | > 100 µM (inactive) |  |  | > 100 µM (inactive) | > 100 µM (inactive) | > 100 µM (inactive) | > 100 µM (inactive) | > 100 µM (inactive) |  | > 100 µM (inactive) |  | > 100 µM (inactive) | > 100 µM (inactive) | > 100 µM (inactive) | 98.4 µM (inactive) | > 100 µM (inactive)
Cc1ccc(Nc2nc(O)c3[nH]cnc3n2)cc1CO | 1.7 µM (inactive) |  | 14.8 µM (inactive) | 13 µM (inactive) | 21.2 µM (inactive) | 15.5 µM (inactive) | 13.5 µM (inactive) | 16.5 µM (inactive) | 15.7 µM (inactive) | 14 µM (inactive) |  | 18 µM (inactive) | 15.9 µM (inactive) | 8.87 µM (inactive) | 16.6 µM (inactive) | 15.2 µM (inactive) | 17.1 µM (inactive) | 19.5 µM (inactive) | 19.9 µM (inactive) | 
O=c1c2ccccc2n2c(-c3ccccc3O)nnc2n1-c1ccccc1 | > 100 µM (inactive) | > 100 µM (inactive) | > 100 µM (inactive) | > 100 µM (inactive) |  | > 100 µM (inactive) | > 100 µM (inactive) | > 100 µM (inactive) | > 100 µM (inactive) | > 100 µM (inactive) | > 100 µM (inactive) | > 100 µM (inactive) | > 100 µM (inactive) | > 100 µM (inactive) | > 100 µM (inactive) | > 100 µM (inactive) | > 100 µM (inactive) | > 100 µM (inactive) | > 100 µM (inactive) | > 100 µM (inactive)
